Assay [1] deals with HT-22 cells. The following applies: cited from earlier work.
Assay [2] deals with Dsg2^mut/mut ES-CMs. Briefly: FACS analysis of apoptosis (AnnexinV/propidium iodide) in ISO/Ca2+-treated ES-CMs. The following applies: 7 days, 5 μM or 25 μM peptide. The assay is classed as cell-based, mouse. Here is the method: Mouse embryonic stem cells (ESs) were maintained and differentiated, and the absence of mycoplasma contamination was confirmed prior to experimental studies. Briefly, mouse ESs from both WT and Dsg2^mut/mut mice were derived from E3.5 embryos and maintained on gelatin-coated dishes in maintenance medium (Glasgow minimum essential medium supplemented with 10% fetal bovine serum and 3 μM Chir99021 and 1 μM PD98059 or 1000 U/ml ESGRO; Millipore), Glutamax, sodium pyruvate, and MEM non-essential amino acids (Thermo Fisher Scientific). For cardiomyocyte (CM) differentiation, ESs were plated in IMDM/Ham's F12 (Cellgro, at 3:1) supplemented with N2, B27, penicillin/streptomycin, 2 mM GlutaMAX, 0.05% BSA, 5 ng/ml L-ascorbic acid (Sigma-Aldrich), and α-monothioglycerol (MTG; Sigma-Aldrich) at a final density of 100,000 cells/ml to allow spheroid formation. After 48 hours, embryoid bodies were collected and transferred to ultra-low attachment plastic surface and induced for 40 hours with Activin A and Bmp4 (R&D Systems). Cells were then dissociated and plated as monolayers for 48 hours in the presence of 10 μM XAV to allow cardiomyocyte differentiation. […] (4) After 7 days of treatment, ES-CMs were stained with AnnexinV in a buffer containing 10 mM HEPES (pH 7.4), 140 mM NaCl, 2.5 mM CaCl2, followed by the addition of 1 mg/ml propidium iodide and analyzed by flow cytometry.
Background: A flow cytometer gives signals particle by particle.

The test system of assay [3] is HMGB1. Briefly: HMGB1 cytosolic/nuclear levels in ISO/Ca2+-treated ES-CMs. The assay is classed as cell-based, mouse. The following applies: ISO/Ca2+-treated Dsg2^mut/mut ES-CMs, 7 days, peptide. Here is the method: Mouse embryonic stem cells (ESs) were maintained and differentiated, and the absence of mycoplasma contamination was confirmed prior to experimental studies. Briefly, mouse ESs from both WT and Dsg2^mut/mut mice were derived from E3.5 embryos and maintained on gelatin-coated dishes in maintenance medium (Glasgow minimum essential medium supplemented with 10% fetal bovine serum and 3 μM Chir99021 and 1 μM PD98059 or 1000 U/ml ESGRO; Millipore), Glutamax, sodium pyruvate, and MEM non-essential amino acids (Thermo Fisher Scientific). For cardiomyocyte (CM) differentiation, ESs were plated in IMDM/Ham's F12 (Cellgro, at 3:1) supplemented with N2, B27, penicillin/streptomycin, 2 mM GlutaMAX, 0.05% BSA, 5 ng/ml L-ascorbic acid (Sigma-Aldrich), and α-monothioglycerol (MTG; Sigma-Aldrich) at a final density of 100,000 cells/ml to allow spheroid formation. After 48 hours, embryoid bodies were collected and transferred to ultra-low attachment plastic surface and induced for 40 hours with Activin A and Bmp4 (R&D Systems). Cells were then dissociated and plated as monolayers for 48 hours in the presence of 10 μM XAV to allow cardiomyocyte differentiation. The resulting ES-CMs were cultured 45 days before experimental procedures were performed. […]

Assay [4] has as its system tAIF. Briefly: Nuclear import and localization of tAIF in ISO/Ca2+-treated ES-CMs. The assay is classed as cell-based, mouse. The following applies: ISO/Ca2+-treated Dsg2^mut/mut ES-CMs, 7 days. Here is the method: Mouse embryonic stem cells (ESs) were maintained and differentiated, and the absence of mycoplasma contamination was confirmed prior to experimental studies. Briefly, mouse ESs from both WT and Dsg2^mut/mut mice were derived from E3.5 embryos and maintained on gelatin-coated dishes in maintenance medium (Glasgow minimum essential medium supplemented with 10% fetal bovine serum and 3 μM Chir99021 and 1 μM PD98059 or 1000 U/ml ESGRO; Millipore), Glutamax, sodium pyruvate, and MEM non-essential amino acids (Thermo Fisher Scientific). […]
All myocardium (sedentary and exercised mouse cohorts and patient myocardial biopsies) were formalin-fixed and paraffin-embedded (FFPE). […] Following three additional washes, ProLong Gold Antifade Mountant with DAPI (Thermofisher, 936931) were applied, and slides were coverslipped, and immunoreactive signal was detected via laser scanning microscopy (Zeiss LSM 510 Meta). […]
Following immunostaining, AIF-fluorescence and nuclear fluorescence (DAPI) were detected via laser scanning microscopy (Zeiss LSM 510 Meta) via a sequential fashion to avoid crosstalk between fluorophores. Merged images were obtained using Zeiss LSM software, and approximately 3-10 Regions of Interest (ROIs) were assessed per condition (mouse myocardium and patient myocardial biopsies). […]

Assay [5] concerns the target PPIA (Homo sapiens, UniProt P62937). The following applies: read-out: KD, affinity to PPIA-binding; cited from earlier work.

Sequence of PPIA (P62937 whole entry, species assumed): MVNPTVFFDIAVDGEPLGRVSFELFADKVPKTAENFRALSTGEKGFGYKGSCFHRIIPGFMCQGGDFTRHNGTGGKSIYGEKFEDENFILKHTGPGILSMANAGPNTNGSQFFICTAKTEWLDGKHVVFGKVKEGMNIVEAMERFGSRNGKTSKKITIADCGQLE

With “Ac-CIKLKDGRKVC-NH2 [AIF (381-389) ox, Cyclic peptide, 11 amino acids long]”, in assay [1], the “neuroprotective effects in HT-22 cells during the oxidative stress” value was “provides neuroprotective”.
With “NH2-GRKKRRQRRR(βAla)QSVGVSSGKLLIKLKDGRKVETDHI-NH2 (GRKKRRQRRRAQSVGVSSGKLLIKLKDGRKVETDHI; C-terminal amide; MOD_RES (11)..(11) 1,2-dihydro-3(6h)-pyridinone beta-alanine) [TAT-AIF (370-394), Linear peptide, 38 amino acids long, N-terminal TAT fragment for cell uptake]”, in assay [2], the “apoptosis (FACS)” value is listed as “attenuated”. Further, in assay [3], the “increased cytosolic and decreased nuclear HMGB1 levels” value is “prevented”. Further, in assay [4], the “PPIA-mediated nuclear import of tAIF (immunoblot)” value is “precluded” and the “tAIF nuclear localization (immunostaining)” value is “precluded”. Besides, the Kd – broadly, the constant that tells how readily two partners part at equilibrium – in assay [5] was 12 µM.
